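Results reflect a 48-hour exposure of cells in 96-well plates to compound at five concentrations. Definition used: TGI = concentration required for complete inhibition of growth.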
Experiments:
Assay in all cases: NCI-60 cell line screen, 48 h
[1] = tested on: 786-0 renal
[2] = tested on: A498 renal
[3] = tested on: A549 NSCLC
[4] = tested on: ACHN renal
[5] = tested on: BT-549 breast
[6] = tested on: CAKI-1 renal
[7] = tested on: CCRF-CEM leukemia
[8] = tested on: COLO 205 colon
[9] = tested on: DU-145 prostate
[10] = tested on: EKVX NSCLC
[11] = tested on: HCT-116 colon
[12] = tested on: HCT-15 colon
[13] = tested on: HL-60(TB) leukemia
[14] = tested on: HOP-62 NSCLC
[15] = tested on: HOP-92 NSCLC
[16] = tested on: HS 578T breast
[17] = tested on: HT29 colon
[18] = tested on: IGROV1 ovarian
[19] = tested on: K-562 leukemia
[20] = tested on: KM12 colon
[21] = tested on: LOX IMVI melanoma
[22] = tested on: M14 melanoma
[23] = tested on: MCF7 breast
[24] = tested on: MDA-MB-231 breast
[25] = tested on: MDA-MB-435
[26] = tested on: MDA-N
[27] = tested on: MOLT-4 leukemia
[28] = tested on: NCI-H226 lung
[29] = tested on: NCI-H23 lung
[30] = tested on: NCI-H460 lung
[31] = tested on: NCI/ADR-RES ovarian
[32] = tested on: OVCAR-3 ovarian
[33] = tested on: OVCAR-5 ovarian
[34] = tested on: OVCAR-8 ovarian
[35] = tested on: PC-3 prostate
[36] = tested on: RPMI-8226 leukemia
[37] = tested on: SF-268 CNS
[38] = tested on: SF-295 CNS
[39] = tested on: SF-539 CNS
[40] = tested on: SK-MEL-2 melanoma
[41] = tested on: SK-MEL-28 melanoma
[42] = tested on: SK-MEL-5 melanoma
[43] = tested on: SK-OV-3 ovarian
[44] = tested on: SN12C renal
[45] = tested on: SNB-19 CNS
[46] = tested on: SR leukemia
[47] = tested on: SW-620 colon
[48] = tested on: T-47D breast
[49] = tested on: TK-10 renal
[50] = tested on: U251 CNS
[51] = tested on: UACC-257 melanoma
[52] = tested on: UACC-62 melanoma
[53] = tested on: UO-31 renal
[54] = tested on: MALME-3M melanoma
[55] = tested on: NCI-H522 lung
[56] = tested on: OVCAR-4 ovarian
[57] = tested on: RXF 393 renal
[58] = tested on: SNB-75 CNS

**Q.** For `Cc1cc(C)c(C)c(-n2[nH]c(=O)n(C)c2=O)c1C`, which TGI [1] is on record?
**A.** > 100 µM

**Q.** What about the TGI [2] of the same compound?
**A.** > 100 µM

**Q.** What about the TGI [3] of the same compound?
**A.** > 100 µM

**Q.** What about the TGI [4] of the same compound?
**A.** > 100 µM

**Q.** What about the TGI [5] of the same compound?
**A.** > 100 µM

**Q.** And the TGI [6]?
**A.** > 100 µM

**Q.** And the TGI [7]?
**A.** > 100 µM

**Q.** What about the TGI [8] of the same compound?
**A.** > 100 µM

**Q.** What about the TGI [9] of the same compound?
**A.** > 100 µM

**Q.** What about the TGI [10] of the same compound?
**A.** > 100 µM

**Q.** What about the TGI [11] of the same compound?
**A.** > 100 µM

**Q.** And the TGI [12]?
**A.** > 100 µM

**Q.** What about the TGI [13] of the same compound?
**A.** > 100 µM

**Q.** And the TGI [14]?
**A.** > 100 µM

**Q.** What about the TGI [15] of the same compound?
**A.** > 100 µM

**Q.** And the TGI [16]?
**A.** > 100 µM

**Q.** What about the TGI [17] of the same compound?
**A.** > 100 µM

**Q.** And the TGI [18]?
**A.** > 100 µM

**Q.** What about the TGI [19] of the same compound?
**A.** > 100 µM

**Q.** What about the TGI [20] of the same compound?
**A.** > 100 µM

**Q.** And the TGI [21]?
**A.** > 100 µM

**Q.** What about the TGI [22] of the same compound?
**A.** > 100 µM

**Q.** What about the TGI [23] of the same compound?
**A.** > 100 µM

**Q.** And the TGI [24]?
**A.** > 100 µM

**Q.** What about the TGI [25] of the same compound?
**A.** > 100 µM

**Q.** What about the TGI [26] of the same compound?
**A.** > 100 µM

**Q.** And the TGI [27]?
**A.** > 100 µM

**Q.** What about the TGI [28] of the same compound?
**A.** > 100 µM

**Q.** What about the TGI [29] of the same compound?
**A.** > 100 µM

**Q.** And the TGI [30]?
**A.** > 100 µM

**Q.** And the TGI [31]?
**A.** > 100 µM

**Q.** And the TGI [32]?
**A.** > 100 µM

**Q.** What about the TGI [33] of the same compound?
**A.** > 100 µM

**Q.** And the TGI [34]?
**A.** > 100 µM

**Q.** And the TGI [35]?
**A.** > 100 µM

**Q.** What about the TGI [36] of the same compound?
**A.** > 100 µM

**Q.** And the TGI [37]?
**A.** > 100 µM

**Q.** And the TGI [38]?
**A.** > 100 µM

**Q.** And the TGI [39]?
**A.** > 100 µM

**Q.** And the TGI [40]?
**A.** > 100 µM

**Q.** What about the TGI [41] of the same compound?
**A.** > 100 µM

**Q.** What about the TGI [42] of the same compound?
**A.** > 100 µM

**Q.** And the TGI [43]?
**A.** > 100 µM

**Q.** And the TGI [44]?
**A.** > 100 µM

**Q.** And the TGI [45]?
**A.** > 100 µM

**Q.** And the TGI [46]?
**A.** > 100 µM

**Q.** What about the TGI [47] of the same compound?
**A.** > 100 µM

**Q.** What about the TGI [48] of the same compound?
**A.** > 100 µM

**Q.** And the TGI [49]?
**A.** > 100 µM

**Q.** What about the TGI [50] of the same compound?
**A.** > 100 µM

**Q.** What about the TGI [51] of the same compound?
**A.** > 100 µM

**Q.** What about the TGI [52] of the same compound?
**A.** > 100 µM

**Q.** What about the TGI [53] of the same compound?
**A.** > 100 µM

**Q.** Which TGI [1] does the source give for `COc1ccc(/C=C(\NC(=O)c2ccccc2)C(=O)NN(C)c2ccnc3cc(Cl)ccc23)cc1OC` here?
**A.** 79.2 µM

**Q.** And the TGI [2]?
**A.** > 100 µM

**Q.** And the TGI [3]?
**A.** 97.1 µM

**Q.** And the TGI [4]?
**A.** 79 µM

**Q.** And the TGI [5]?
**A.** 39.5 µM

**Q.** And the TGI [6]?
**A.** 90.6 µM

**Q.** What about the TGI [8] of the same compound?
**A.** 61 µM

**Q.** What about the TGI [9] of the same compound?
**A.** 66.3 µM

**Q.** And the TGI [10]?
**A.** > 100 µM

**Q.** What about the TGI [11] of the same compound?
**A.** > 100 µM

**Q.** And the TGI [12]?
**A.** 55.4 µM

**Q.** And the TGI [14]?
**A.** > 100 µM

**Q.** What about the TGI [15] of the same compound?
**A.** 55.3 µM

**Q.** And the TGI [16]?
**A.** > 100 µM

**Q.** And the TGI [17]?
**A.** > 100 µM

**Q.** And the TGI [18]?
**A.** 47.6 µM

**Q.** And the TGI [19]?
**A.** 51.2 µM

**Q.** What about the TGI [20] of the same compound?
**A.** 34.7 µM

**Q.** And the TGI [21]?
**A.** 35.1 µM

**Q.** What about the TGI [22] of the same compound?
**A.** 47.9 µM

**Q.** And the TGI [54]?
**A.** 72.5 µM

**Q.** What about the TGI [23] of the same compound?
**A.** 46.3 µM

**Q.** What about the TGI [24] of the same compound?
**A.** 60.3 µM

**Q.** What about the TGI [25] of the same compound?
**A.** 49.6 µM

**Q.** And the TGI [26]?
**A.** 65.7 µM

**Q.** And the TGI [27]?
**A.** 47.7 µM

**Q.** And the TGI [28]?
**A.** 40.8 µM

**Q.** And the TGI [29]?
**A.** 62.8 µM

**Q.** And the TGI [30]?
**A.** 39.3 µM

**Q.** What about the TGI [55] of the same compound?
**A.** 44.1 µM

**Q.** And the TGI [31]?
**A.** 43.8 µM

**Q.** What about the TGI [32] of the same compound?
**A.** 69.7 µM

**Q.** What about the TGI [56] of the same compound?
**A.** 90.5 µM

**Q.** What about the TGI [33] of the same compound?
**A.** > 100 µM

**Q.** And the TGI [34]?
**A.** 46.8 µM

**Q.** What about the TGI [35] of the same compound?
**A.** 70.2 µM

**Q.** And the TGI [36]?
**A.** 45.3 µM

**Q.** And the TGI [57]?
**A.** 38.4 µM

**Q.** What about the TGI [37] of the same compound?
**A.** 35.4 µM

**Q.** And the TGI [38]?
**A.** 97.1 µM

**Q.** And the TGI [39]?
**A.** 46.5 µM

**Q.** And the TGI [40]?
**A.** 46 µM

**Q.** And the TGI [41]?
**A.** 58.1 µM

**Q.** And the TGI [42]?
**A.** 88.3 µM

**Q.** What about the TGI [43] of the same compound?
**A.** > 100 µM

**Q.** What about the TGI [44] of the same compound?
**A.** 66.9 µM

**Q.** And the TGI [45]?
**A.** > 100 µM

**Q.** And the TGI [58]?
**A.** > 100 µM

**Q.** What about the TGI [46] of the same compound?
**A.** 41.3 µM

**Q.** What about the TGI [47] of the same compound?
**A.** 51.3 µM

**Q.** And the TGI [48]?
**A.** > 100 µM

**Q.** And the TGI [49]?
**A.** > 100 µM

**Q.** What about the TGI [50] of the same compound?
**A.** 35.4 µM

**Q.** What about the TGI [51] of the same compound?
**A.** 79.1 µM

**Q.** What about the TGI [53] of the same compound?
**A.** 80.4 µM

— PubChem BioAssay (NCI)
